The values below come from patent publication US10640506B2, “Cyclobutyl substituted pyrrolopyridine and pyrrolopyrimidines derivatives as JAK inhibitors” (Incyte Corporation, priority 2010, dated 2020).

Where two headings read alike, the source gives them in different places.

In assay [1] the target is human JAK1 (a.a. 837-1142) (Homo sapiens, UniProt P23458). The assay can be described thus: In vitro JAK kinase assay (HTRF, phosphorylation of biotinylated peptide), JAK1. Type of assay: biochemical. On the procedure: Compounds herein were tested for inhibitory activity of JAK targets according to the following in vitro assay described in Park et al., Analytical Biochemistry 1999, 269, 94-104. The catalytic domains of human JAK1 (a.a. 837-1142) and JAK2 (a.a. 828-1132) with an N-terminal His tag were expressed using baculovirus in insect cells and purified. The catalytic activity of JAK1 and JAK2 was assayed by measuring the phosphorylation of a biotinylated peptide. The phosphorylated peptide was detected by homogenous time resolved fluorescence (HTRF). […] Reactions were carried out at room temperature for 1 hour and then stopped with 20 μL 45 mM EDTA, 300 nM SA-APC, 6 nM Eu-Py20 in assay buffer (Perkin Elmer, Boston, Mass.). Binding to the Europium labeled antibody took place for 40 minutes and HTRF signal was measured on a Fusion plate reader (Perkin Elmer, Boston, Mass.). […] Data is indicated as ranges, wherein “+” is less than 10 nM; “++” is 10 nM to 25 nM; “+++” is greater than 25 nM to 100 nM; and “++++” is greater than 100 nM. Greater than 25 nM to 100 nM specifies a range with a lower endpoint “at greater than 25 nM” and an upper endpoint at 100 nM.
Chain of human JAK1 (a.a. 837-1142) (P23458 849-1154): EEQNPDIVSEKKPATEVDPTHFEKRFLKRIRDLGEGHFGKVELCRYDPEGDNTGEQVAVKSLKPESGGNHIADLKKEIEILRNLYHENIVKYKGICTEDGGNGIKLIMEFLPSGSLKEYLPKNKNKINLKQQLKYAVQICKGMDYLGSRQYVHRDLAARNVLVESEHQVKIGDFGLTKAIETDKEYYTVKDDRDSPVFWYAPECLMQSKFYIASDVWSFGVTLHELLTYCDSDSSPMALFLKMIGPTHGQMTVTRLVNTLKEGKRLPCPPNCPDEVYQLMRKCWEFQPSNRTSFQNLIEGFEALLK
In general terms: In TR-FRET formats the signal depends on donor and acceptor labels being close together.

The target in the next assay is T1, JAK2 (a.a. 828-1132) (Homo sapiens, UniProt O60674).
T1 construct: JAK2 (a.a. 828-1132); His tag (N)
T1 sequence (O60674 828-1132): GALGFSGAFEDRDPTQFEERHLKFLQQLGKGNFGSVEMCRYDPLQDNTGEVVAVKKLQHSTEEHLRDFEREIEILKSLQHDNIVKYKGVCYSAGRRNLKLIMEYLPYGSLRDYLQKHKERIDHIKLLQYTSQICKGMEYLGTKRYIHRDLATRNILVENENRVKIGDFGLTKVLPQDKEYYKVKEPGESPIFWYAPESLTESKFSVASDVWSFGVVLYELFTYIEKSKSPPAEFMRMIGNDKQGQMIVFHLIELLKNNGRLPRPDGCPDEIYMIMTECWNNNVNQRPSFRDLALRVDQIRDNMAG
Put plainly: In vitro JAK kinase assay (HTRF, phosphorylation of biotinylated peptide), JAK2. Type of assay: biochemical. On the procedure: Compounds herein were tested for inhibitory activity of JAK targets according to the following in vitro assay described in Park et al., Analytical Biochemistry 1999, 269, 94-104. The catalytic domains of human JAK1 (a.a. 837-1142) and JAK2 (a.a. 828-1132) with an N-terminal His tag were expressed using baculovirus in insect cells and purified. The catalytic activity of JAK1 and JAK2 was assayed by measuring the phosphorylation of a biotinylated peptide. The phosphorylated peptide was detected by homogenous time resolved fluorescence (HTRF). […] Reactions were carried out at room temperature for 1 hour and then stopped with 20 μL 45 mM EDTA, 300 nM SA-APC, 6 nM Eu-Py20 in assay buffer (Perkin Elmer, Boston, Mass.). Binding to the Europium labeled antibody took place for 40 minutes and HTRF signal was measured on a Fusion plate reader (Perkin Elmer, Boston, Mass.). See Tables A-F for data related to compounds of the Examples (at 1 mM). Data is indicated as ranges, wherein “+” is less than 10 nM; “++” is 10 nM to 25 nM; “+++” is greater than 25 nM to 100 nM; and “++++” is greater than 100 nM. Greater than 25 nM to 100 nM specifies a range with a lower endpoint “at greater than 25 nM” and an upper endpoint at 100 nM.

Where [2] appears, read: read-out: JAK1 IC50 (nM) at 1 mM, Table E, 1 mM ATP.

For the compound “3-[(4-{trans-3-(cyanomethyl)-3-[4-(7H-pyrrolo[2,3-d]pyrimidin-4-yl)-1H-pyrazol-1-yl]cyclobutyl}piperazin-1-yl)methyl]-5-[(dimethylamino)methyl]benzonitrile [Example 43]”, the IC50 is 25 to 100 nM in assay [1] (read-out: JAK1 IC50 (nM) at 1 mM ATP, Table F) and above 100 nM on JAK2 (a.a. 828-1132) (read-out: JAK2 IC50 (nM) at 1 mM ATP, Table F).
Turning to `N#CC[C@]1(n2cc(-c3ncnc4[nH]ccc34)cn2)C[C@H](N2CCN(C(=O)N[C@H]3CCC[C@@H]3O)CC2)C1` (racemic) [Example 88, 4-{trans-3-(cyanomethyl)-3-[4-(7H-pyrrolo[2,3-d]pyrimidin-4-yl)-1H-pyrazol-1-yl]cyclobutyl}-N-(2-hydroxycyclopentyl)piperazine-1-carboxamide], the concentration for half-maximal inhibition (IC50) in assay [1] (Table F, 1 mM ATP) is below 10 nM; at JAK2 (a.a. 828-1132) (Table F, 1 mM ATP), 25 to 100 nM.
In the case of `N#CC[C@]1(n2cc(-c3ncnc4[nH]ccc34)cn2)C[C@H](N2CCN(C(=O)N[C@H]3CCC[C@H]3O)CC2)C1` (single isomer, unassigned) [Example 89], the IC50 was below 10 nM in assay [1] (Table F, 1 mM ATP) and 25 to 100 nM against JAK2 (a.a. 828-1132) (Table F, 1 mM ATP).
The corresponding values for `COCc1cc(OC2CCN([C@H]3C[C@@](CC#N)(n4cc(-c5ncnc6[nH]ccc56)cn4)C3)CC2)nc(C(F)(F)F)c1` (single isomer, unassigned) [Example 121, {cis-3-(4-{[4-(methoxymethyl)-6-(trifluoromethyl)pyridin-2-yl]oxy}piperidin-1-yl)-1-[4-(7H-pyrrolo[2,3-d]pyrimidin-4-yl)-1H-pyrazol-1-yl]cyclobutyl}acetonitrile] are 25 to 100 nM and above 100 nM.
As for `COCc1cc(OC2CCN([C@H]3C[C@](CC#N)(n4cc(-c5ncnc6[nH]ccc56)cn4)C3)CC2)nc(C(F)(F)F)c1` (single isomer, unassigned) [Example 122, {trans-3-(4-{[4-(methoxymethyl)-6-(trifluoromethyl)pyridin-2-yl]oxy}piperidin-1-yl)-1-[4-(7H-pyrrolo[2,3-d]pyrimidin-4-yl)-1H-pyrazol-1-yl]cyclobutyl}acetonitrile], the IC50 in assay [1] (Table F, 1 mM ATP) is below 10 nM; on JAK2 (a.a. 828-1132) (Table F, 1 mM ATP), above 100 nM.
The corresponding values for `N#CC[C@]1(n2cc(-c3ncnc4[nH]ccc34)cn2)C[C@H](N2CCC(Oc3cc(CO)cc(C(F)(F)F)n3)CC2)C1` (single isomer, unassigned) [Example 123, {trans-3-(4-{[4-(hydroxymethyl)-6-(trifluoromethyl)pyridin-2-yl]oxy}piperidin-1-yl)-1-[4-(7H-pyrrolo[2,3-d]pyrimidin-4-yl)-1H-pyrazol-1-yl]cyclobutyl}acetonitrile] are below 10 nM and above 100 nM.
As for `N#CC[C@]1(n2cc(-c3ncnc4[nH]ccc34)cn2)C[C@@H](N2CCC(Oc3cc(CO)cc(C(F)(F)F)n3)CC2)C1` (single isomer, unassigned) [Example 124, {cis-3-(4-{[4-(hydroxymethyl)-6-(trifluoromethyl)pyridin-2-yl]oxy}piperidin-1-yl)-1-[4-(7H-pyrrolo[2,3-d]pyrimidin-4-yl)-1H-pyrazol-1-yl]cyclobutyl}acetonitrile], the IC50 was 25 to 100 nM in assay [1] (Table F, 1 mM ATP) and above 100 nM at JAK2 (a.a. 828-1132) (Table F, 1 mM ATP).
On the same counts, the results for `CC(C)(O)c1cc(OC2CCN([C@H]3C[C@](CC#N)(n4cc(-c5ncnc6[nH]ccc56)cn4)C3)CC2)nc(C(F)(F)F)c1` (single isomer, unassigned) [Example 125, {trans-3-(4-{[4-(1-hydroxy-1-methylethyl)-6-(trifluoromethyl)pyridin-2-yl]oxy}piperidin-1-yl)-1-[4-(7H-pyrrolo[2,3-d]pyrimidin-4-yl)-1H-pyrazol-1-yl]cyclobutyl}acetonitrile] are below 10 nM and 25 to 100 nM.
On the same counts, the results for `CC(C)(O)c1cc(OC2CCN([C@H]3C[C@@](CC#N)(n4cc(-c5ncnc6[nH]ccc56)cn4)C3)CC2)nc(C(F)(F)F)c1` (single isomer, unassigned) [Example 126, {cis-3-(4-{[4-(1-hydroxy-1-methylethyl)-6-(trifluoromethyl)pyridin-2-yl]oxy}piperidin-1-yl)-1-[4-(7H-pyrrolo[2,3-d]pyrimidin-4-yl)-1H-pyrazol-1-yl]cyclobutyl}acetonitrile] are 10 to 25 nM and above 100 nM.
For `N#CC[C@]1(n2cc(-c3ncnc4[nH]ccc34)cn2)C[C@@H](N2CCC(Oc3cc(C#N)cc(C(F)(F)F)n3)CC2)C1` (single isomer, unassigned) [Example 133, 2-[(1-{cis-3-(cyanomethyl)-3-[4-(7H-pyrrolo[2,3-d]pyrimidin-4-yl)-1H-pyrazol-1-yl]cyclobutyl}piperidin-4-yl)oxy]-6-(trifluoromethyl)isonicotinonitrile], the IC50 in assay [1] (Table F, 1 mM ATP) was 25 to 100 nM; against JAK2 (a.a. 828-1132) (Table F, 1 mM ATP), above 100 nM.
On the same counts, the results for `N#CC[C@]1(n2cc(-c3ncnc4[nH]ccc34)cn2)C[C@H](N2CCC(Oc3cc(C#N)cc(C(F)(F)F)n3)CC2)C1` (single isomer, unassigned) [Example 134, 2-1(1-{trans-3-(cyanomethyl)-3-[4-(7H-pyrrolo[2,3-d]pyrimidin-4-yl)-1H-pyrazol-1-yl]cyclobutyl}piperidin-4-yl)oxyl-6-(trifluoromethyl)isonicotinonitrile] are below 10 nM and above 100 nM.
As for `N#CC[C@]1(n2cc(-c3ncnc4[nH]ccc34)cn2)C[C@@H](N2CCC(Oc3cc(CN4CCOC4=O)cc(C(F)(F)F)n3)CC2)C1` (single isomer, unassigned) [Example 165, peak 1, {cis-3-(4-{[4-[(2-oxo-1,3-oxazolidin-3-yl)methyl]-6-(trifluoromethyl)pyridin-2-yl]oxy}piperidin-1-yl)-1-[4-(7H-pyrrolo[2,3-d]pyrimidin-4-yl)-1H-pyrazol-1-yl]cyclobutyl}acetonitrile], the IC50 in assay [1] (Table F, 1 mM ATP) was 25 to 100 nM; at JAK2 (a.a. 828-1132) (Table F, 1 mM ATP), above 100 nM.
The corresponding values for `N#CC[C@]1(n2cc(-c3ncnc4[nH]ccc34)cn2)C[C@H](N2CCC(Oc3cc(CN4CCOC4=O)cc(C(F)(F)F)n3)CC2)C1` (single isomer, unassigned) [Example 165, peak 2, {trans-3-(4-{[4-[(2-oxo-1,3-oxazolidin-3-yl)methyl]-6-(trifluoromethyl)pyridin-2-yl]oxy}piperidin-1-yl)-1-[4-(7H-pyrrolo[2,3-d]pyrimidin-4-yl)-1H-pyrazol-1-yl]cyclobutyl}acetonitrile] are below 10 nM and 25 to 100 nM.
As to `CN(C)Cc1cc(F)cc(OC2CCN(C3CC(CC#N)(n4cc(-c5ncnc6[nH]ccc56)cn4)C3)CC2)c1` (single isomer, unassigned; isomer 1) [Example 40, isomer 1, {cis-3-(4-{3-[(dimethylamino)methyl]-5-fluorophenoxy}piperidin-1-yl)-1-[4-(7H-pyrrolo[2,3-d]pyrimidin-4-yl)-1H-pyrazol-1-yl]cyclobutyl}acetonitrile], the IC50 in assay [1] (setting [2]) is below 10 nM; on JAK2 (a.a. 828-1132) (Table E, 1 mM ATP, listed as 40, isomer 1, read-out: JAK2 IC50 (nM) +), 10 to 25 nM.
Regarding `C[C@H]1CCCN1Cc1cc(F)cc(OC2CCN(C3CC(CC#N)(n4cc(-c5ncnc6[nH]ccc56)cn4)C3)CC2)c1` (single isomer, unassigned; isomer 1) [Example 41, isomer 1], the IC50 in assay [1] (setting [2]) is below 10 nM; on JAK2 (a.a. 828-1132) (Table E, 1 mM ATP, listed as 41, isomer 1, read-out: JAK2 IC50 (nM) +) it was 10 to 25 nM.
With `CN(C)Cc1cc(F)cc(OC2CCN(C3CC(CC#N)(n4cc(-c5ncnc6[nH]ccc56)cn4)C3)CC2)c1` (single isomer, unassigned; isomer 2) [Example 40, isomer 2, {trans-3-(4-{3-[(dimethylamino)methyl]-5-fluorophenoxy}piperidin-1-yl)-1-[4-(7H-pyrrolo[2,3-d]pyrimidin-4-yl)-1H-pyrazol-1-yl]cyclobutyl}acetonitrile], the half-maximal inhibitory concentration (IC50) in assay [1] (setting [2]) is below 10 nM; on JAK2 (a.a. 828-1132) (Table E, 1 mM ATP, listed as 40, isomer 2, read-out: JAK2 IC50 (nM) +) it was below 10 nM.
In the case of `CCS(=O)(=O)N1CCN([C@H]2C[C@](CC#N)(n3cc(-c4ncnc5[nH]ccc45)cn3)C2)CC1` [Example 35, {trans-3-[4-(ethylsulfonyl)piperazin-1-yl]-1-[4-(7H-pyrrolo[2,3-d]pyrimidin-4-yl)-1H-pyrazol-1-yl]cyclobutyl}acetonitrile], the IC50 at JAK2 (a.a. 828-1132) (Table B, 1 mM ATP, read-out: JAK2 IC50) is below 10 nM.

What is called IC50 is the point on the concentration scale where inhibition reaches its midpoint.
